Several values for one entry are separate records, joined by “and”; a condition that tells them apart may be missing. Equal values may be shown once. Read-outs that look alike come from different tables or passages of the source.
Experiments:
[1] = test system: ^241Am contaminated dogs (nose-only inhalation); test: Efficacy study in dogs, preliminary ^241Am recovery in urine and liver; assay type: in vivo, dog; details: for Total Recovered Activity, Liver, Treatment Mean / Total Recovered Activity, Urine, Treatment Mean: dogs; for Total Recovered Activity, Liver / Total Recovered Activity, Urine: individual animals
Description: Dogs were administered ^241Am (target of 3 μCi/animal) by nose-only inhalation on Day 0. […] Group 1 was a control and was used for determining the unperturbed biokinetics. Fourteen (14) days post C2E2 administration, the animals were sedated and euthanized. Preliminary urinary excretion and liver retention data were obtained (Table 8).

[2] = 10-day repeat-dose toxicity and toxicokinetics study in dogs; assay type: in vivo, Beagle dog; details: for AUC(0-t) / Cmax: plasma, po, 200 mg/kg/day, after 10 days of dosing; for AUC(0-t): read-out: C2E2 AUC0-24; for Cmax: read-out: Mean C2E2 Cmax
Description: An exploratory study was conducted to evaluate the toxicity and to determine the toxicokinetics of the test article, C2E2, when administered to dogs via 10 daily oral gavage doses. Groups of 2 Beagle dogs/sex were administered C2E2 via oral gavage at dose levels of 0, 60, 200, 400, or 600 mg/kg. The vehicle was reverse osmosis water and the dose volume was 8 mL/kg. Assessment of toxicity was based on mortality, clinical observations, body weight, food consumption, clinical pathology, gross pathology, organ weights, histopathology of selected tissues, and plasma essential trace elements analysis. Blood samples were collected on Days 1 and 10 for toxicokinetic evaluations of C2E2, C2E1, DTPA and C2E3. C2E3 is believed to be an impurity in the C2E2 lot used.

[3] = Stability of C2E2 in plasma (human); assay type: in vitro ADME; details: 37° C.
Description: Prior to the study, 975 μL of plasma (Rat, Beagle and Human) was preheated to 37° C. in Eppendorff tubes and the test compound (C2E2) was prepared in DI water (10 mg/mL). The C2E2 was from Lot 050 obtained using Method 2. To initiate the study, 25 μL of the C2E2 solution was added to the pre-heated plasma and briefly vortexed, to mix. At 0, 15, 30, 60 and 120 minutes a 100 μL sample of plasma was taken, an equal volume of cold acetonitrile was added and mixed to precipitate plasma proteins. Samples were centrifuged at 4° C. and 14,000×g for 10 minutes to remove precipitated proteins, the supernatant was collected and the C2E2 concentration determined by HPLC-CAD. All conditions were repeated in triplicate.
HPLC Detection Methods: C2E2 analysis was performed on a prominence HPLC (Shimadzu Corporation, Kyoto, Japan) equipped with a Corona Ultra charged […] detector (CAD) (Thermo scientific, Sunnyvale, Calif.). […]
The gradient is 0.01-34.99 min: 22% B; 35.00-44.99 min: 33% B; 45.00-60.00 min: 38% B. The flow rate is 1.0 mL/min, a Thermo Hypersil ODS column (150 mm 4.6 mm i.d. with 5.0 μm particles) will be used, injection volume will be 10 μL and column oven temperature maintained at 25° C. […] The limit of quantification is 0.35 μg/mL. […]

[4] = test system: polychromatic erythrocytes (PCE) in Sprague-Dawley rat bone marrow; test: In vivo micronucleus assay
Description: The objective of this study was to evaluate C2E2 for in vivo clastogenic activity and/or disruption of the mitotic apparatus by detecting micronuclei in polychromatic erythrocytes (PCE) in Sprague-Dawley rat bone marrow.
C2E2 was formulated in cell culture grade water vehicle and the dose volume for all treatment groups was 20 mL/kg. The C2E2 was from Lot 050 obtained using Method 2.
Male rats were administered vehicle control, or 500, 1000, or 2000 mg/kg/day of C2E2 once a day for two days separated by approximately 24 hours. The 2000 mg/kg high dose is the limit dose for this assay recommended by ICH S2(R1) guidance. A positive control group of animals received a single 60 mg/kg cyclophosphamide treatment on the second day of dosing. […] Bone marrow was extracted approximately 24 hours after the last treatment in all groups and at least 2000 PCEs per animal were analyzed for the frequency of micronuclei. Cytotoxicity was assessed by scoring the number of PCEs and normochromatic erythrocytes (NCEs) observed while scoring at least 500 erythrocytes per animal.

[5] = C2E2 100 mg/kg oral, female dogs
[6] = C2E2 100 mg/kg oral, female dogs, 100 mg/kg
[7] = C2E2 100 mg/kg oral, male dogs, 100 mg/kg
[8] = C2E2 300 mg/kg oral, female dogs
[9] = C2E2 300 mg/kg oral, female dogs, 300 mg/kg
[10] = C2E2 300 mg/kg oral, male dogs, 300 mg/kg
[11] = C2E2 500 mg/kg oral, female dogs
[12] = C2E2 500 mg/kg oral, female dogs, 500 mg/kg
[13] = C2E2 500 mg/kg oral, male dogs, 500 mg/kg

For `CCOC(=O)CN(CCN(CCN(CC(=O)O)CC(=O)OCC)CC(=O)O)CC(=O)O` [C2E2, 6,9-bis(carboxymethyl)-3-(2-ethoxy-2-oxoethyl)-11-oxo-12-oxa-3,6,9-triazatetradecan-1-oic acid], the “Total Recovered Activity, Liver, Treatment Mean” value ([1]; C2E2 100 mg/kg oral) was 168.91 nCi, the “Total Recovered Activity, Urine, Treatment Mean” value ([1]; C2E2 100 mg/kg oral) was 168.70 nCi and the “Total Recovered Activity, Liver, Gender Mean” value [1, 5] was 157.92 nCi. The “Total Recovered Activity, Urine, Gender Mean” value [1, 5] was 168.30 nCi, the “Total Recovered Activity, Liver” value [1, 6] was 186.4 nCi and 129.4 nCi and the “Total Recovered Activity, Urine” value [1, 6] was 193.85 nCi and 142.75 nCi. For the same compound, the “Total Recovered Activity, Liver, Gender Mean” value ([1]; C2E2 100 mg/kg oral, male dogs) was 179.89 nCi, the “Total Recovered Activity, Urine, Gender Mean” value ([1]; C2E2 100 mg/kg oral, male dogs) was 169.10 nCi and the “Total Recovered Activity, Liver” value [1, 7] was 213.3 nCi and 146.5 nCi. The “Total Recovered Activity, Urine” value [1, 7] was 187.57 nCi and 150.63 nCi, the “Total Recovered Activity, Liver, Treatment Mean” value ([1]; C2E2 300 mg/kg oral) was 132.28 nCi and the “Total Recovered Activity, Urine, Treatment Mean” value ([1]; C2E2 300 mg/kg oral) was 169.50 nCi. For the same compound, the “Total Recovered Activity, Liver, Gender Mean” value [1, 8] was 144.49 nCi, the “Total Recovered Activity, Urine, Gender Mean” value [1, 8] was 181.71 nCi and the “Total Recovered Activity, Liver” value [1, 9] was 87.6 nCi and 201.4 nCi. For the same compound, the “Total Recovered Activity, Urine” value [1, 9] was 121.32 nCi and 242.10 nCi, the “Total Recovered Activity, Liver, Gender Mean” value ([1]; C2E2 300 mg/kg oral, male dogs) was 120.06 nCi and the “Total Recovered Activity, Urine, Gender Mean” value ([1]; C2E2 300 mg/kg oral, male dogs) was 157.29 nCi. The “Total Recovered Activity, Liver” value [1, 10] was 109.2 nCi and 130.9 nCi, the “Total Recovered Activity, Urine” value [1, 10] was 97.24 nCi and 217.34 nCi and the “Total Recovered Activity, Liver, Treatment Mean” value ([1]; C2E2 500 mg/kg oral) was 45.01 nCi. The “Total Recovered Activity, Urine, Treatment Mean” value ([1]; C2E2 500 mg/kg oral) was 188.82 nCi, the “Total Recovered Activity, Liver, Gender Mean” value [1, 11] was 40.30 nCi and the “Total Recovered Activity, Urine, Gender Mean” value [1, 11] was 103.00 nCi. The “Total Recovered Activity, Liver” value [1, 12] was 34.3 nCi and 46.3 nCi, the “Total Recovered Activity, Urine” value [1, 12] was 65.39 nCi and 140.61 nCi and the “Total Recovered Activity, Liver, Gender Mean” value ([1]; C2E2 500 mg/kg oral, male dogs) was 49.73 nCi. The “Total Recovered Activity, Urine, Gender Mean” value ([1]; C2E2 500 mg/kg oral, male dogs) was 274.65 nCi, the “Total Recovered Activity, Liver” value [1, 13] was 49.4 nCi and 50.1 nCi and the “Total Recovered Activity, Urine” value [1, 13] was 288.78 nCi and 260.53 nCi. The “Dose proportionality of mean Cmax and AUC0-24” value ([2]; 60 to 600 mg/kg/day) was “not consistently dose proportional”, the “Maximum-tolerated dose (statement)” value ([2]; 400 and 600 mg/kg/day, early sacrifices) was “exceeded the maximum-tolerated dose” and the NOAEL at 10 days ([2]; both sexes, Beagle, dog, in vivo, dogs, oral gavage, 10 days, read-out: No observed adverse effect level (NOAEL)) was 200 mg/kg/day. The “Accumulation after multiple dosing” value ([2]; dogs, 10 daily doses) was “No accumulation”, the “Sex differences in C2E2 mean Cmax and AUC0-24” value ([2]; dogs, 60-600 mg/kg/day) was “less than 2 fold” and the “Dose at which liver and kidney were target organs of toxicity” value ([2]; dogs, 10 days) was ≥ 400 mg/kg/day. The “Dose with clinical chemistry changes consistent with hepatotoxicity” value ([2]; dogs, 10 days) was ≥ 400 mg/kg/day, the “Dose with test article related clinical observations (vomitus/emesis, fecal abnormalities)” value ([2]; dogs, 10 days) was ≥ 200 mg/kg/day and the AUC(0-t) ([2]; female, Beagle, dog, females) was 184 µg·h/mL. The Cmax ([2]; female, Beagle, dog, females) was 72 µg/mL, the “Dose with dose-dependent body weight loss” value ([2]; females) was ≥ 400 mg/kg/day and the AUC(0-t) ([2]; male, Beagle, dog, males) was 151 µg·h/mL. For the same compound, the Cmax ([2]; male, Beagle, dog, males) was 59.5 µg/mL, the “Dose with dose-dependent body weight loss” value ([2]; males) was ≥ 200 mg/kg/day and the “Dose with hepatocyte degeneration/necrosis and mixed cell inflammation” value ([2]; males, terminal sacrifice) was ≥ 200 mg/kg/day. The “Mortality / early sacrifice” value ([2]; one male 600 mg/kg/day, one male 400 mg/kg/day) was “Two animals were sacrificed early due to moribund condition”, the “Essential trace elements in plasma (Cr, Co, Cu, Fe, Mg, Mn, Mo, Se, Zn)” value ([2]; repeated doses up to 600 mg/kg/day for 10 days) was “No test article-related depletion of essential trace elements in plasma” and the C2E2 remaining ([3]; after 2 hours) was “approximately 90%”. The “Metabolism in plasma (observation)” value ([3]; up to two hours) was “minimal or not detected”, the “Bone marrow cytotoxicity (PCE:NCE ratios)” value ([4]; 500, 1000, 2000 mg/kg/day x2 days, male rats) was “absence of treatment-related bone marrow cytotoxicity” and the “Induction of micronuclei in rat bone marrow” value ([4]; 500, 1000, or 2000 mg/kg/day orally once a day for 2 days, male rats) was “negative”. For the same compound, the Clinical signs ([4]; one 2000 mg/kg/day animal, Day 2) was “audible respiration and hypoactive behavior”.
